#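 Following 48 hours of exposure in 96-well plates, responses at five concentrations were used to interpolate endpoints linearly. TGI: total growth inhibition.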
# What was measured:
# Test in all cases: NCI anticancer screen, dose series, 48 h
# HT29 colon = system: HT29 colon
# UACC-62 melanoma = system: UACC-62 melanoma
# HCT-15 colon = system: HCT-15 colon
# SN12C renal = system: SN12C renal
# SF-295 CNS = system: SF-295 CNS
# SF-268 CNS = system: SF-268 CNS
# MOLT-4 leukemia = system: MOLT-4 leukemia
# NCI-H460 lung = system: NCI-H460 lung
# OVCAR-3 ovarian = system: OVCAR-3 ovarian
# U251 CNS = system: U251 CNS
# HL-60(TB) leukemia = system: HL-60(TB) leukemia
# SNB-75 CNS = system: SNB-75 CNS
# SK-OV-3 ovarian = system: SK-OV-3 ovarian
# SNB-19 CNS = system: SNB-19 CNS
# EKVX NSCLC = system: EKVX NSCLC
# KM12 colon = system: KM12 colon
# RXF 393 renal = system: RXF 393 renal
# OVCAR-5 ovarian = system: OVCAR-5 ovarian
# HOP-62 NSCLC = system: HOP-62 NSCLC
# OVCAR-4 ovarian = system: OVCAR-4 ovarian
SMILES,TGI (HT29 colon) [µM],TGI (UACC-62 melanoma) [µM],TGI (HCT-15 colon) [µM],TGI (SN12C renal) [µM],TGI (SF-295 CNS) [µM],TGI (SF-268 CNS) [µM],TGI (MOLT-4 leukemia) [µM],TGI (NCI-H460 lung) [µM],TGI (OVCAR-3 ovarian) [µM],TGI (U251 CNS) [µM],TGI (HL-60(TB) leukemia) [µM],TGI (SNB-75 CNS) [µM],TGI (SK-OV-3 ovarian) [µM],TGI (SNB-19 CNS) [µM],TGI (EKVX NSCLC) [µM],TGI (KM12 colon) [µM],TGI (RXF 393 renal) [µM],TGI (OVCAR-5 ovarian) [µM],TGI (HOP-62 NSCLC) [µM],TGI (OVCAR-4 ovarian) [µM]
CCOc1ccc(C2=C(Cl)c3cc(OC)c(OC)cc3C2Cl)cc1 (stereo not drawn),> 100,> 100,> 100,> 100,> 100,> 100,78.4,> 100,> 100,39.8,49.4,> 100,> 100,> 100,> 100,–,–,–,–,–
Nc1ccc2cc(S(=O)(=O)O)cc(O)c2c1N=Nc1ccc(NC(=O)Nc2ccc(N=Nc3c(N)ccc4cc(S(=O)(=O)O)cc(O)c34)c(S(=O)(=O)O)c2)cc1S(=O)(=O)O,> 100,> 100,> 100,> 100,> 100,> 100,> 100,> 100,> 100,> 100,> 100,> 100,> 100,–,> 100,> 100,> 100,> 100,> 100,> 100
CN(C)CCCc1cccnc1,> 100,> 100,> 100,> 100,> 100,> 100,–,> 100,> 100,> 100,> 100,> 100,> 100,> 100,> 100,> 100,> 100,> 100,> 100,> 100
COc1ccc2c(C)cc(N/N=C/c3sccc3C)nc2c1,12.5,34.9,20.3,20.4,28.4,85.9,48.6,–,10.6,51.9,> 100,26.1,31.9,41.6,–,21.8,32,28.1,28.4,> 100
CC(=O)Nc1ccc(C2=N/C(=C\c3ccc(Cl)c(Cl)c3)C(=O)O2)cc1,> 100,> 100,> 100,> 100,> 100,> 100,> 100,> 100,> 100,> 100,> 100,> 100,> 100,> 100,> 100,> 100,> 100,> 100,> 100,> 100
CC1C(=O)C(C)C(c2cccs2)N(N=O)C1c1cccs1 (stereo not drawn),> 100,> 100,> 100,> 100,> 100,> 100,> 100,> 100,> 100,> 100,> 100,> 93,> 100,> 100,> 100,> 100,> 100,> 100,> 100,> 100
O=C1ON(Cc2ccccc2)C(c2ccccc2)N1c1ccccc1 (stereo not drawn),> 100,> 100,> 100,> 100,> 100,> 100,> 100,> 100,> 100,> 100,> 100,> 100,> 100,> 100,> 100,> 100,> 100,> 100,> 100,> 100
c1ccc2c(c1)ccc1ncccc12,> 100,> 100,> 100,> 100,> 100,> 100,> 100,> 100,> 100,> 100,> 100,> 100,–,> 100,> 100,> 100,> 100,> 100,> 100,> 100
O=C(N1CCOCC1)C1(c2ccccc2)CCNCC1,> 100,> 100,> 100,> 100,> 100,> 100,> 100,> 100,> 100,> 100,–,> 100,> 100,> 100,> 100,> 100,> 100,> 100,> 100,> 100
NC(=O)NC(CC(=O)O)C(=O)O (stereo not drawn),> 100,> 100,> 100,> 100,> 100,> 100,> 100,> 100,> 100,> 100,–,> 100,–,> 100,> 100,> 100,> 100,> 100,> 100,> 100
COc1ccc(N2C(=O)C3c4[nH]c5ccccc5c4C4CCCCCCCC4C3C2=O)cc1 (stereo not drawn),> 10,> 10,> 10,> 10,> 10,> 10,> 10,> 10,> 10,> 10,> 10,> 10,> 10,> 10,> 10,> 10,> 10,> 10,> 10,> 10
CCc1ccc(CCC(=O)O)nc1,> 100,> 100,> 100,> 100,> 100,> 100,–,> 100,> 100,> 100,> 100,> 100,> 100,> 100,> 100,> 100,> 100,> 100,> 100,> 100
COc1nc(/C=N/NC(N)=S)nc(OC)n1,> 100,> 100,–,> 100,> 100,> 100,> 100,> 100,> 100,> 100,> 100,> 100,> 100,> 100,> 100,> 100,> 100,> 100,–,> 100
COc1cc(C2c3cc4c(cc3OC3(O)COC(=O)C23)OCO4)cc(OC)c1OC (stereo not drawn),> 100,> 100,> 100,> 100,74.5,> 100,> 100,> 100,> 100,> 100,97.7,54.5,79,> 100,> 100,–,91.5,> 100,> 100,> 100
COc1cc(C2C(Cl)C(=O)N2NC(=O)c2ccc(NC(C)=O)cc2)cc(Br)c1O (stereo not drawn),> 100,> 100,–,–,> 100,> 100,> 100,> 100,> 100,> 100,> 100,> 100,> 100,> 100,–,> 100,–,> 100,> 100,–
